Assay results published in BindingDB's records for doi:10.1016/j.bmcl.2008.01.067 (Spot-Ea3857, 2008).

Target: Peroxisome proliferator-activated receptor gamma (Homo sapiens) (UniProt P37231)
Test: Agonist activity at human PPARgamma at 100 uM by GAL4 transactivation assay relative to Rosiglitazone

SMILES | EC50 [nM]
CCO[C@@H](Cc1ccc(OCCc2ccc(OS(C)(=O)=O)cc2)cc1)C(=O)O [(2S)-2-ethoxy-3-(4-{2-[4-(methanesulfonyloxy)phenyl]ethoxy}phenyl)propanoic acid] | 37
COC(=O)C(Cc1ccc(OCCN2CCC(C)(C)c3cc(C(N=O)c4ccccc4)ccc32)cc1)C(=O)OC (centres undefined) [dimethyl 2-(4-(2-(6-((hydroxyimino)(phenyl)methyl)-4,4-dimethyl-3,4-dihydroquinolin-1(2H)-yl)ethoxy)benzyl)malonate] | 195
COC(=O)C(Cc1ccc(OCCN2CCC(C)(C)c3cc(C(=O)c4ccccc4)ccc32)cc1)C(=O)OC [dimethyl 2-(4-(2-(6-benzoyl-4,4-dimethyl-3,4-dihydroquinolin-1(2H)-yl)ethoxy)benzyl)malonate] | 152
CCOC(=O)C(Cc1ccc(OCCN2CCC(C)(C)c3cc(C(N=O)c4ccccc4)ccc32)cc1)OCC (centres undefined) [ethyl 2-ethoxy-3-(4-(2-(6-((hydroxyimino)(phenyl)methyl)-4,4-dimethyl-3,4-dihydroquinolin-1(2H)-yl)ethoxy)phenyl)propanoate] | 48
